Series [1] concerns the target HIV-1 integrase (IN), strand transfer, wild-type (Human immunodeficiency virus type 1 group M subtype B, UniProt P12497). Put plainly: biochemical. The settings on record: Strand transfer IC50, in vitro IN assays as described in reference [4].
In series [2] the target is HIV-1 integrase (IN), 3′-processing (Human immunodeficiency virus type 1 group M subtype B, UniProt P12497). Put plainly: biochemical.
Series [3] has as its system HIV-1 integrase Y143R mutant. In kind it is biochemical.
Series [4] deals with HIV-1 vector with G140S/Q148H integrase. In kind it is cell-based. The settings on record: antiviral, mutant vector in cultured cells.
The subject of series [5] is HIV-1 vector with N155H integrase. In kind it is cell-based. The note with it: antiviral, cultured cells.
The subject of series [6] is HIV-1 vector with Y143R integrase. In kind it is cell-based. The settings on record: antiviral, cultured cells.
The subject of series [7] is HIV-1 integrase N155H mutant. It counts as biochemical.
Setting [8] is: 3′-Processing IC50, in vitro IN assays as described in reference [4].

Values joined by “and” are separate entries in the source; they are usually repeats but may differ in a detail not shown here. Equal values may be shown once.

What is called IC50 is the concentration at which inhibition is half-maximal. Higher therefore signals weaker potency in that assay. Consider `O=C1c2ccc(O)c(O)c2C(=O)N1Cc1ccc(F)c(Cl)c1` [3-1, reference compound], for which the values for the IC50 in series [1] and in series [2] (setting [8]) were 0.17 ± 0.06 µM and 14 ± 3 µM, respectively.
Consider `O=C1c2ccc(O)c(O)c2C(=O)N1Cc1ccc(F)cc1` [3-2, reference compound], for which it took 8 ± 3 µM to reach half-maximal inhibition in series [2] (setting [8]) (IC50).
Still for that read-out and setting: in the case of `O=C1c2ccc(O)c(O)c2C(=O)N1Cc1ccc(F)c(F)c1` [3-3, reference compound] it was 27 ± 1 µM; in that of `O=C1c2ccc(O)c(O)c2C(=O)N1Cc1cccc(Cl)c1F` [3-4, reference compound], 25 ± 16 µM.
Consider `O=C1c2ccc(O)c(O)c2C(=O)N1Cc1ccccc1` [3-5], for which the IC50 in series [1] is 0.4 µM and 0.39 µM; in series [2] (setting [8]), 72 ± 23 µM.
Turning to `O=C1c2ccc(O)c(O)c2C(=O)N1Cc1cccc2ccccc12` [3-6], the IC50 was 0.7 µM and 0.72 µM in series [1]; 150 ± 36 µM in series [2] (setting [8]).
In series [2] (setting [8]), `O=C1c2c(c3n(c(=O)c2O)CCC3)C(=O)N1Cc1ccc(F)c(Cl)c1` [4a-1] gave an IC50 greater than 111 µM.
For the molecule `O=C1c2c(c3n(c(=O)c2O)CCCC3)C(=O)N1Cc1ccc(F)c(Cl)c1` [4b-1], the “fold less sensitive than Raltegravir to the Y143R mutation” value in series [3] is “more than 10 fold”. Besides, the “times less sensitive than Raltegravir to the G140S/Q148H mutation” value in series [4] came to 200 times. Further, the “cytotoxicity fold lower than 3-1” value in the series on cultured cells was 30 fold. For the same molecule, the “fold lower loss of potency compared to Raltegravir, N155H vector” value in series [5] is recorded as 10 fold. Also, the IC50 in series [2] (3′-P IC50, metal cofactor Mg2+) was greater than 111 µM; in series [2] (setting [8]) it was greater than 111 µM. Besides, the “fold lower loss of potency compared to Raltegravir, Y143R vector” value in series [6] turned out to be 10 fold. For the same molecule, in series [7], the “fold less sensitive than Raltegravir to the N155H mutation” value is “more than 2 fold”.
Turning to `O=C1c2c(c3n(c(=O)c2O)CCCCC3)C(=O)N1Cc1ccc(F)c(Cl)c1` [4c-1], the IC50 in series [2] (setting [8]) is greater than 111 µM.
Molecule `O=C1c2c(c3n(c(=O)c2O)CCCCC3)C(=O)N1Cc1ccc(F)cc1` [4c-2] came in with an IC50 in series [2] (setting [8]) greater than 111 µM.
In series [2] (setting [8]), `O=C1c2c(c3n(c(=O)c2O)CCCCC3)C(=O)N1Cc1ccc(F)c(F)c1` [4c-3] gave an IC50 greater than 111 µM.
The same measure, in the same setting: the value for `O=C1c2c(c3n(c(=O)c2O)CCCCC3)C(=O)N1Cc1cccc(Cl)c1F` [4c-4] was greater than 111 µM.
With `O=C1c2c(c3n(c(=O)c2O)CCCCC3)C(=O)N1Cc1ccccc1` [4c-5], the IC50 in series [1] and in series [2] (setting [8]) was greater than 111 µM each time.
In turn, `O=C1c2c(c3n(c(=O)c2O)CCCCC3)C(=O)N1Cc1cccc2ccccc12` [4c-6] displayed an IC50 in series [2] (setting [8]) greater than 111 µM.
On the same count and under the same terms, in the case of `O=C1c2c(c3n(c(=O)c2O)CCCCCC3)C(=O)N1Cc1ccc(F)c(Cl)c1` [4d-1] it was greater than 111 µM.

Source of the values: article PMC3085635 (Bioorganic & medicinal chemistry letters, 2011).
